Assay results as given in PubChem BioAssay (NCI).
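Interpolation was linear, between the two tested concentrations surrounding the appropriate level; five concentrations were tested over 48 hours in 96-well plates. Abbreviation: GI50, concentration required for 50% inhibition of growth. TGI: concentration producing complete growth inhibition.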

Key:
Test in all cases: NCI anticancer screen, dose series, 48 h
[1] = tested on: 786-0 renal
[2] = tested on: A498 renal
[3] = tested on: A549 NSCLC
[4] = tested on: ACHN renal
[5] = tested on: BT-549 breast
[6] = tested on: CAKI-1 renal
[7] = tested on: CCRF-CEM leukemia
[8] = tested on: COLO 205 colon
[9] = tested on: DU-145 prostate
[10] = tested on: EKVX NSCLC
[11] = tested on: HCC-2998 colon
[12] = tested on: HCT-116 colon
[13] = tested on: HCT-15 colon
[14] = tested on: HL-60(TB) leukemia
[15] = tested on: HOP-62 NSCLC
[16] = tested on: HOP-92 NSCLC
[17] = tested on: HS 578T breast
[18] = tested on: HT29 colon
[19] = tested on: IGROV1 ovarian
[20] = tested on: K-562 leukemia
[21] = tested on: KM12 colon
[22] = tested on: LOX IMVI melanoma
[23] = tested on: M14 melanoma
[24] = tested on: MALME-3M melanoma
[25] = tested on: MCF7 breast
[26] = tested on: MDA-MB-231 breast
[27] = tested on: MDA-MB-435
[28] = tested on: MOLT-4 leukemia
[29] = tested on: NCI-H226 lung
[30] = tested on: NCI-H23 lung
[31] = tested on: NCI-H460 lung
[32] = tested on: NCI-H522 lung
[33] = tested on: NCI/ADR-RES ovarian
[34] = tested on: OVCAR-3 ovarian
[35] = tested on: OVCAR-4 ovarian
[36] = tested on: OVCAR-5 ovarian
[37] = tested on: OVCAR-8 ovarian
[38] = tested on: PC-3 prostate
[39] = tested on: RPMI-8226 leukemia
[40] = tested on: RXF 393 renal
[41] = tested on: SF-268 CNS
[42] = tested on: SF-295 CNS
[43] = tested on: SF-539 CNS
[44] = tested on: SK-MEL-2 melanoma
[45] = tested on: SK-MEL-28 melanoma
[46] = tested on: SK-MEL-5 melanoma
[47] = tested on: SK-OV-3 ovarian
[48] = tested on: SN12C renal
[49] = tested on: SNB-19 CNS
[50] = tested on: SNB-75 CNS
[51] = tested on: SR leukemia
[52] = tested on: SW-620 colon
[53] = tested on: T-47D breast
[54] = tested on: TK-10 renal
[55] = tested on: U251 CNS
[56] = tested on: UACC-257 melanoma
[57] = tested on: UACC-62 melanoma
[58] = tested on: UO-31 renal

Compound `COc1ccc(S(=O)(=O)N2CCNCC2)cc1OC` has a GI50 [1] of over 100 µM, a TGI [1] of over 100 µM and a GI50 [2] of over 100 µM. The TGI [2] was over 100 µM, the GI50 [3] was over 100 µM and the TGI [3] was over 100 µM. The GI50 [4] was over 100 µM, the TGI [4] was over 100 µM and the GI50 [5] was over 100 µM. It also gave a TGI [5] of over 100 µM, a GI50 [6] of over 100 µM and a TGI [6] of over 100 µM. The GI50 [7] was over 100 µM, the TGI [7] was over 100 µM and the GI50 [8] was over 100 µM. The TGI [8] was over 100 µM, the GI50 [9] was over 100 µM and the TGI [9] was over 100 µM. The GI50 [10] was over 100 µM, the TGI [10] was over 100 µM and the GI50 [11] was over 100 µM. The TGI [11] was over 100 µM, the GI50 [12] was over 100 µM and the TGI [12] was over 100 µM. The GI50 [13] was over 100 µM, the TGI [13] was over 100 µM and the GI50 [14] was over 100 µM. It also gave a TGI [14] of over 100 µM, a GI50 [15] of over 100 µM and a TGI [15] of over 100 µM. The GI50 [16] was over 100 µM, the TGI [16] was over 100 µM and the GI50 [17] was over 100 µM. The TGI [17] was over 100 µM, the GI50 [18] was over 100 µM and the TGI [18] was over 100 µM. The GI50 [19] was over 100 µM, the TGI [19] was over 100 µM and the GI50 [20] was over 100 µM. The TGI [20] was over 100 µM, the GI50 [21] was over 100 µM and the TGI [21] was over 100 µM. The GI50 [22] was over 100 µM, the TGI [22] was over 100 µM and the GI50 [23] was over 100 µM. It also gave a TGI [23] of over 100 µM, a GI50 [24] of over 100 µM and a TGI [24] of over 100 µM. The GI50 [25] was over 100 µM, the TGI [25] was over 100 µM and the GI50 [26] was over 100 µM. It also gave a TGI [26] of over 100 µM, a GI50 [27] of over 100 µM and a TGI [27] of over 100 µM. It also gave a GI50 [28] of over 100 µM, a TGI [28] of over 100 µM and a GI50 [29] of over 100 µM. The TGI [29] was over 100 µM, the GI50 [30] was over 100 µM and the TGI [30] was over 100 µM. It also gave a GI50 [31] of over 100 µM, a TGI [31] of over 100 µM and a GI50 [32] of over 100 µM. For the same compound, the TGI [32] was over 100 µM, the GI50 [33] was over 100 µM and the TGI [33] was over 100 µM. The GI50 [34] was over 100 µM, the TGI [34] was over 100 µM and the GI50 [35] was over 100 µM. The TGI [35] was over 100 µM, the GI50 [36] was over 100 µM and the TGI [36] was over 100 µM. For the same compound, the GI50 [37] was over 100 µM, the TGI [37] was over 100 µM and the GI50 [38] was over 100 µM. The TGI [38] was over 100 µM, the GI50 [39] was over 100 µM and the TGI [39] was over 100 µM. The GI50 [40] was over 100 µM, the TGI [40] was over 100 µM and the GI50 [41] was over 100 µM. It also gave a TGI [41] of over 100 µM, a GI50 [42] of over 100 µM and a TGI [42] of over 100 µM. It also gave a GI50 [43] of over 100 µM, a TGI [43] of over 100 µM and a GI50 [44] of over 100 µM. The TGI [44] was over 100 µM, the GI50 [45] was over 100 µM and the TGI [45] was over 100 µM. It also gave a GI50 [46] of over 100 µM, a TGI [46] of over 100 µM and a GI50 [47] of over 100 µM. The TGI [47] was over 100 µM, the GI50 [48] was over 100 µM and the TGI [48] was over 100 µM. For the same compound, the GI50 [49] was over 100 µM, the TGI [49] was over 100 µM and the GI50 [50] was over 100 µM. It also gave a TGI [50] of over 100 µM, a GI50 [51] of over 100 µM and a TGI [51] of over 100 µM. It also gave a GI50 [52] of over 100 µM, a TGI [52] of over 100 µM and a GI50 [53] of over 100 µM. The TGI [53] was over 100 µM, the GI50 [54] was over 100 µM and the TGI [54] was over 100 µM. The GI50 [55] was over 100 µM, the TGI [55] was over 100 µM and the GI50 [56] was over 100 µM. For the same compound, the TGI [56] was over 100 µM, the GI50 [57] was over 100 µM and the TGI [57] was over 100 µM. For the same compound, the GI50 [58] was over 100 µM and the TGI [58] was over 100 µM.
Work on `c1ccc(C2=C(c3ccccc3)Sc3nnc(CCCCCCCCc4nnc5n4NC(c4ccccc4)=C(c4ccccc4)S5)n3N2)cc1` yielded a TGI [1] of over 100 µM, a TGI [2] of over 100 µM and a TGI [3] of over 100 µM. The TGI [4] was over 100 µM, the TGI [5] was over 100 µM and the TGI [6] was over 100 µM. For the same compound, the TGI [7] was 72.4 µM, the TGI [8] was over 100 µM and the TGI [9] was over 100 µM. The TGI [10] was over 100 µM, the TGI [11] was over 100 µM and the TGI [12] was over 100 µM. It also gave a TGI [13] of over 100 µM, a TGI [14] of 37.2 µM and a TGI [15] of over 100 µM. For the same compound, the TGI [16] was over 100 µM, the TGI [17] was over 100 µM and the TGI [18] was over 100 µM. It also gave a TGI [20] of over 100 µM, a TGI [21] of over 100 µM and a TGI [22] of over 100 µM. It also gave a TGI [23] of over 100 µM, a TGI [24] of over 100 µM and a TGI [25] of over 100 µM. For the same compound, the TGI [26] was over 100 µM, the TGI [27] was over 100 µM and the TGI [28] was 49.9 µM. For the same compound, the TGI [29] was over 100 µM, the TGI [30] was over 100 µM and the TGI [31] was over 100 µM. It also gave a TGI [32] of over 100 µM, a TGI [33] of over 100 µM and a TGI [34] of over 100 µM. It also gave a TGI [35] of over 100 µM, a TGI [36] of over 100 µM and a TGI [37] of over 100 µM. For the same compound, the TGI [38] was over 100 µM, the TGI [39] was over 100 µM and the TGI [40] was over 100 µM. The TGI [41] was over 100 µM, the TGI [42] was over 100 µM and the TGI [43] was over 100 µM. The TGI [44] was over 100 µM, the TGI [45] was over 100 µM and the TGI [46] was over 100 µM. The TGI [47] was over 100 µM, the TGI [48] was over 100 µM and the TGI [49] was over 100 µM. The TGI [50] was over 100 µM, the TGI [51] was over 100 µM and the TGI [52] was over 100 µM. It also gave a TGI [53] of 79.2 µM, a TGI [54] of over 100 µM and a TGI [55] of over 100 µM. For the same compound, the TGI [56] was over 100 µM, the TGI [57] was over 100 µM and the TGI [58] was over 100 µM.
